From patent US20140005163A1 (NOVARTIS AG, priority 2010, published 2014)

What follows are compounds tested against T1, PI3K gamma (Homo sapiens, UniProt P48736) (assay: PI3K gamma kinase assay (Kinase-Glo luminescence)). Conditions: not given.
T1 construct: His tag (C); made in house; host or cells: baculovirus (pVL1393); Tn5 or TiniPro insect cells; construct from Roger Williams lab, MRC LMB
T1 sequence (P48736 144-1102 limits assumed): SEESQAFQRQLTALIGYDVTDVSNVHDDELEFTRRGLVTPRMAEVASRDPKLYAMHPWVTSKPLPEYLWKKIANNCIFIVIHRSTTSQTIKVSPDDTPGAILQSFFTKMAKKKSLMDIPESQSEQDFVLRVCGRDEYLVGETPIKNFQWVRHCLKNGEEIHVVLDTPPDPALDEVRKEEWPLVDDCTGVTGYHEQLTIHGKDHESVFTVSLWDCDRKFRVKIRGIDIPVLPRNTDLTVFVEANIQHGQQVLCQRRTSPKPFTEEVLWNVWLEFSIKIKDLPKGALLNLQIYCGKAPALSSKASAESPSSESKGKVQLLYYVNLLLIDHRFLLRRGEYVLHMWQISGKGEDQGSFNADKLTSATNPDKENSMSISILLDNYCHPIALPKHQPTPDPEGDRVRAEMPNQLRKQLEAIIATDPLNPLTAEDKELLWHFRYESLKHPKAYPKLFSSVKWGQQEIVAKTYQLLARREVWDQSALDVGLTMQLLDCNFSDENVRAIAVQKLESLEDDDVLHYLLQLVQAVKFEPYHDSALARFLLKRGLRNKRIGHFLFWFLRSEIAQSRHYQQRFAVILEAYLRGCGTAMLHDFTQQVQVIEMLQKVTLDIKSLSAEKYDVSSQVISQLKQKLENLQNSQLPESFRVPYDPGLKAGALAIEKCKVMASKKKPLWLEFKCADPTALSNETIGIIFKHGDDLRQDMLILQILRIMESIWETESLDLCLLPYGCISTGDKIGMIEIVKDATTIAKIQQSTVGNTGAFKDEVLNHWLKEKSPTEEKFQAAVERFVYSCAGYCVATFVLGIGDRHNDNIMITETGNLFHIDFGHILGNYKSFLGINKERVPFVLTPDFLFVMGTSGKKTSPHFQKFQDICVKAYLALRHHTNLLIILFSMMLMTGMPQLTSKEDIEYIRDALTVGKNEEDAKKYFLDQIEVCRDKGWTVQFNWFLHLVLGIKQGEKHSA
Type: biochemical
Procedure, shortened: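 PI3Kγ (150 nM) reaction run 120 min at room temperature with phosphatidylinositol substrate (10 μg/mL) and ATP (1 μM) in Tris pH 7.5 buffer containing MgCl2, NaCl, CHAPS and DTT. Remaining ATP detected by Kinase-Glo luminescence; 8 concentrations per compound, IC50 from 4-parameter curve fitting.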
With `CN(C)c1ccc(-c2ccc3ncc4c(c3c2)n(-c2cn(C)nc2Cl)c(=O)n4C)cn1` [Example 4.9, 1-(3-Chloro-1-methyl-1H-pyrazol-4-yl)-8-(6-dimethylamino-pyridin-3-yl)-3-methyl-1,3-dihydro-imidazo[4,5-c]quinolin-2-one] the IC50 was 150 nM. Work on `CNS(=O)(=O)c1cccc(-c2ccc3ncc4c(c3c2)n(-c2cn(C)nc2C)c(=O)n4C)c1` [Example 39, 3-[1-(1,3-Dimethyl-1H-pyrazol-4-yl)-3-methyl-2-oxo-2,3-dihydro-1H-imidazo[4,5-c]quinolin-8-yl]-N-methyl-benzenesulfonamide] yielded an IC50 of 75 nM. `Cc1nn(C)cc1-n1c(=O)n(C)c2cnc3ccc(-c4cccc(NS(C)(=O)=O)c4)cc3c21` [Example 47, N-{3-[1-(1,3-dimethyl-1H-pyrazol-4-yl)-3-methyl-2-oxo-2,3-dihydro-1H-imidazo[4,5-c]quinolin-8-yl]-phenyl}-methanesulfonamide] was tested, and the IC50 was 701 nM.

The compounds below were run against T2, mTOR (Homo sapiens, UniProt P42345) (assay: Biochemical assay for m-TOR by TR-FRET). Conditions: 8 μM ATP, 400 nM GFP-4EBP1, 0.5 nM mTOR.
T2 construct: purchased Invitrogen Corporation (Carlsbad/CA, USA) PV4753
T2 sequence (P42345 1360-2549 limits assumed): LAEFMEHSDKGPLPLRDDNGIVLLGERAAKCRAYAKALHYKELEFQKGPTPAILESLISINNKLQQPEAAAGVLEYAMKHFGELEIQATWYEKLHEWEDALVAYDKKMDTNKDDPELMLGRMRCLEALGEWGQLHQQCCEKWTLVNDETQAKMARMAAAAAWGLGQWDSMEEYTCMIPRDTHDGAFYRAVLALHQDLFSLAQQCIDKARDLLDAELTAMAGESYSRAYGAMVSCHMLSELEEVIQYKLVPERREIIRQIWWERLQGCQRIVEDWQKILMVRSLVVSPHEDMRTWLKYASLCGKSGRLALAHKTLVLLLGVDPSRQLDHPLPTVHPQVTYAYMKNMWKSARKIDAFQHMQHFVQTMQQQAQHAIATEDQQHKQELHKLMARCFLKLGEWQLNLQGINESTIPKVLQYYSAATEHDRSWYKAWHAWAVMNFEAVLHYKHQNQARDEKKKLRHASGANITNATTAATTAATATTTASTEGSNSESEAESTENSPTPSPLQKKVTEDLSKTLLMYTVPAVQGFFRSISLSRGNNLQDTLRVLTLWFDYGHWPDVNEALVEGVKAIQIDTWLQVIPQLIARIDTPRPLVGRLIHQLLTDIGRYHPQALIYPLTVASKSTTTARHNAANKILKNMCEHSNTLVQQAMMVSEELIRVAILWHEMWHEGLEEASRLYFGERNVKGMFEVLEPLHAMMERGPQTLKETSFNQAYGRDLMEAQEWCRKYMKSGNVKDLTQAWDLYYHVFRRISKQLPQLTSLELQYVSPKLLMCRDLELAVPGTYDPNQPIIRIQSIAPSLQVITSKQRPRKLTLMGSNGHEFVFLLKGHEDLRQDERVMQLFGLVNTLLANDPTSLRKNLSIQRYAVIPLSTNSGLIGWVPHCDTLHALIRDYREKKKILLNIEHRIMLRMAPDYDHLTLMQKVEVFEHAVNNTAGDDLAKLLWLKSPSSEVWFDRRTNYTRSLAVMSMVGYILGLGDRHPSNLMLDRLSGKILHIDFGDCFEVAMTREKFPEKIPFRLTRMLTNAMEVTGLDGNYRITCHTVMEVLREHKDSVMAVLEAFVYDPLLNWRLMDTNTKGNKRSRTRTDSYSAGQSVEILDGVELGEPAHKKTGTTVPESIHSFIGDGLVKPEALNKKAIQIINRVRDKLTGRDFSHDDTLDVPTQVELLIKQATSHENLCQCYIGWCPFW
Procedure, shortened: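 Enzyme 0.5 nM, GFP-4EBP1 400 nM, ATP 8 μM (all final); 50 mM HEPES pH 7.5, 10 mM MnCl2, 1 mM DTT; rt. Detection: Tb-α-p4EBP1 [pT46] 0.5 nM in EDTA, TR-FRET, 15 min. Reference compound on every plate, 16-point duplicate dilutions.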
`CN(C)c1ccc(-c2ccc3ncc4c(c3c2)n(-c2cn(C)nc2Cl)c(=O)n4C)cn1` [Example 4.9, 1-(3-Chloro-1-methyl-1H-pyrazol-4-yl)-8-(6-dimethylamino-pyridin-3-yl)-3-methyl-1,3-dihydro-imidazo[4,5-c]quinolin-2-one] was tested, and the IC50 was 11 nM. Work on `CN(C)c1ncc(-c2ccc3ncc4c(c3c2)n(-c2cn(C)nc2Cl)c(=O)n4C)cn1` [Example 6.3, 1-(3-Chloro-1-methyl-1H-pyrazol-4-yl)-8-(2-dimethylamino-pyrimidin-5-yl)-3-methyl-1,3-dihydro-imidazo[4,5-c]quinolin-2-one] yielded an IC50 of 5 nM. In the case of `Cc1nn(C)cc1-n1c(=O)n(C)c2cnc3ccc(-c4cnc(N)c(C(F)(F)F)c4)cc3c21` [Example 25.1, 8-(6-Amino-5-trifluoromethyl-pyridin-3-yl)-1-(1,3-dimethyl-1H-pyrazol-4-yl)-3-methyl-1,3-dihydro-imidazo[4,5-c]quinolin-2-one], the IC50 is reported as 9 nM. In the case of `Cc1cc(-n2c(=O)n(C)c3cnc4ccc(-c5cnc(N)c(C(F)(F)F)c5)cc4c32)n(C)n1` [Example 25.6, 8-(6-Amino-5-trifluoromethyl-pyridin-3-yl)-1-(2,5-dimethyl-2H-pyrazol-3-yl)-3-methyl-1,3-dihydro-imidazo[4,5-c]quinolin-2-one], the IC50 is reported as 82 nM. With `CNS(=O)(=O)c1cccc(-c2ccc3ncc4c(c3c2)n(-c2cn(C)nc2C)c(=O)n4C)c1` [Example 39, 3-[1-(1,3-Dimethyl-1H-pyrazol-4-yl)-3-methyl-2-oxo-2,3-dihydro-1H-imidazo[4,5-c]quinolin-8-yl]-N-methyl-benzenesulfonamide] the IC50 was 69 nM. `Cc1nn(C)cc1-n1c(=O)n(C)c2cnc3ccc(-c4cccc(NS(C)(=O)=O)c4)cc3c21` [Example 47, N-{3-[1-(1,3-dimethyl-1H-pyrazol-4-yl)-3-methyl-2-oxo-2,3-dihydro-1H-imidazo[4,5-c]quinolin-8-yl]-phenyl}-methanesulfonamide] was tested, and the IC50 was 281 nM. In the case of `CC(C)Oc1cncc(-c2ccc3ncc4c(c3c2)n(-c2cn(C)nc2Cl)c(=O)n4C)c1` [Example 58.2, 1-(3-Chloro-1-methyl-1H-pyrazol-4-yl)-8-(5-isopropoxy-pyridin-3-yl)-3-methyl-1,3-dihydro-imidazo[4,5-c]quinolin-2-one], the IC50 is reported as 3 nM. Work on `Cc1nn(C)cc1-n1c(=O)n(C)c2cnc3ccc(-c4cncc(OC5CCC5)c4)cc3c21` [Example 60.1, 8-(5-Cyclobutoxy-pyridin-3-yl)-1-(1,3-dimethyl-1H-pyrazol-4-yl)-3-methyl-1,3-dihydro-imidazo[4,5-c]quinolin-2-one] yielded an IC50 of 5 nM. `Cc1nn(C)cc1-n1c(=O)n(C)c2cnc3ccc(-c4cccc(OC(C)C)c4)cc3c21` [Example 82, 1-(1,3-Dimethyl-1H-pyrazol-4-yl)-8-(3-isopropoxy-phenyl)-3-methyl-1,3-dihydro-imidazo[4,5-c]quinolin-2-one] showed an IC50 of 27 nM. `CCN(CC)c1cncc(-c2ccc3ncc4c(c3c2)n(-c2cn(C)nc2C)c(=O)n4C)c1` [Example 95, 8-(5-Diethylamino-pyridin-3-yl)-1-(1,3-dimethyl-1H-pyrazol-4-yl)-3-methyl-1,3-dihydro-imidazo[4,5-c]quinolin-2-one] showed an IC50 of 20 nM. With `Cc1nn(C)cc1-n1c(=O)n(C)c2cnc3ccc(-c4ccc(N5CCCC5)nc4)cc3c21` [Example 97, 1-(1,3-Dimethyl-1H-pyrazol-4-yl)-3-methyl-8-(6-pyrrolidin-1-yl-pyridin-3-yl)-1,3-dihydro-imidazo[4,5-c]quinolin-2-one] the IC50 was 7 nM. `CNc1ncc(-c2ccc3ncc4c(c3c2)n(-c2cn(C)nc2Cl)c(=O)n4C)cc1C` [Example 119, 1-(3-Chloro-1-methyl-1H-pyrazol-4-yl)-3-methyl-8-(5-methyl-6-methylamino-pyridin-3-yl)-1,3-dihydro-imidazo[4,5-c]quinolin-2-one] gave an IC50 of under 3 nM. Work on `CNc1ncc(-c2ccc3ncc4c(c3c2)n(-c2cn(C(C)C)nc2C)c(=O)n4C)cc1C(F)(F)F` [Example 144.2, 1-(1-Isopropyl-3-methyl-1H-pyrazol-4-yl)-3-methyl-8-(6-methylamino-5-trifluoromethyl-pyridin-3-yl)-1,3-dihydro-imidazo[4,5-c]quinolin-2-one] yielded an IC50 of under 3 nM. Work on `CCNc1ncc(-c2ccc3ncc4c(c3c2)n(-c2cn(C)nc2C)c(=O)n4C)cc1C(F)(F)F` [Example 145.2, 1-(1,3-Dimethyl-1H-pyrazol-4-yl)-8-(6-ethylamino-5-trifluoromethyl-pyridin-3-yl)-3-methyl-1,3-dihydro-imidazo[4,5-c]quinolin-2-one] yielded an IC50 of 16 nM. For `CCn1cc(-n2c(=O)n(C)c3cnc4ccc(-c5cnc(N)c(Cl)c5)cc4c32)c(C)n1` [Example 148.3, 8-(6-Amino-5-chloro-pyridin-3-yl)-1-(1-ethyl-3-methyl-1H-pyrazol-4-yl)-3-methyl-1,3-dihydro-imidazo[4,5-c]quinolin-2-one], the IC50 was 12 nM. For `Cc1cc(-n2c(=O)n(C)c3cnc4ccc(-c5cnc(F)c(N)c5)cc4c32)n(C)n1` [Example 149.3, 8-(5-Amino-6-fluoro-pyridin-3-yl)-1-(2,5-dimethyl-2H-pyrazol-3-yl)-3-methyl-1,3-dihydro-imidazo[4,5-c]quinolin-2-one], the IC50 was 210 nM. `Cc1nn(C(C)C)cc1-n1c(=O)n(C)c2cnc3ccc(-c4cnc(Cl)c(N)c4)cc3c21` [Example 152.1, 8-(5-Amino-6-chloro-pyridin-3-yl)-1-(1-isopropyl-3-methyl-1H-pyrazol-4-yl)-3-methyl-1,3-dihydro-imidazo[4,5-c]quinolin-2-one] was tested, and the IC50 was 13 nM. Work on `Cc1nn(C)c(C)c1-n1c(=O)n(C)c2cnc3ccc(-c4cnc(Cl)c(N)c4)cc3c21` [Example 152.3, 8-(5-Amino-6-chloro-pyridin-3-yl)-3-methyl-1-(1,3,5-trimethyl-1H-pyrazol-4-yl)-1,3-dihydro-imidazo[4,5-c]quinolin-2-one] yielded an IC50 of 189 nM. `CCOCc1cc(-c2ccc3ncc4c(c3c2)n(-c2cn(C(C)C)nc2C)c(=O)n4C)cnc1N` [Example 166.3, 8-(6-Amino-5-ethoxymethyl-pyridin-3-yl)-1-(1-isopropyl-3-methyl-1H-pyrazol-4-yl)-3-methyl-1,3-dihydro-imidazo[4,5-c]quinolin-2-one] showed an IC50 of 55 nM. `CCOCc1cc(-c2ccc3ncc4c(c3c2)n(-c2cn(C)nc2Cl)c(=O)n4C)cnc1N` [Example 166.4, 8-(6-Amino-5-ethoxymethyl-pyridin-3-yl)-1-(3-chloro-1-methyl-1H-pyrazol-4-yl)-3-methyl-1,3-dihydro-imidazo[4,5-c]quinolin-2-one] was tested, and the IC50 was 16 nM. In the case of `Cc1nn(C(C)C)cc1-n1c(=O)n(C)c2cnc3ccc(-c4cnc5c(c4)COC(=O)N5C)cc3c21` [Example 170, 1-(1-Isopropyl-3-methyl-1H-pyrazol-4-yl)-3-methyl-8-(1-methyl-2-oxo-1,4-dihydro-2H-pyrido[2,3-d][1,3]oxazin-6-yl)-1,3-dihydro-imidazo[4,5-c]quinolin-2-one], the IC50 is reported as 1820 nM. For `Cc1nn(C)cc1-n1c(=O)n(C)c2cnc3ccc(-c4cncc(N(C)C5CCC5)c4)cc3c21` [Example 174, 8-[5-(Cyclobutyl-methyl-amino)-pyridin-3-yl]-1-(1,3-dimethyl-1H-pyrazol-4-yl)-3-methyl-1,3-dihydro-imidazo[4,5-c]quinolin-2-one], the IC50 was 7 nM. `Cc1cc(-n2c(=O)n(C)c3cnc4ccc(-c5cnc(C)c(O)c5)cc4c32)n(C)n1` [Example 185.2, 1-(2,5-Dimethyl-2H-pyrazol-3-yl)-8-(5-hydroxy-6-methyl-pyridin-3-yl)-3-methyl-1,3-dihydro-imidazo[4,5-c]quinolin-2-one] was tested, and the IC50 was 19 nM. For `[2H]C([2H])([2H])OCc1ncc(-c2ccc3ncc4c(c3c2)n(-c2cn(C)nc2C)c(=O)n4C)cc1OCC` [Example 198, 1-(1,3-Dimethyl-1H-pyrazol-4-yl)-8-(5-ethoxy-6-trideuteromethoxymethyl-pyridin-3-yl)-3-methyl-1,3-dihydro-imidazo[4,5-c]quinolin-2-one], the IC50 was 73 nM. `CCn1cc(-n2c(=O)n(C)c3cnc4ccc(-c5cncc(C(C)(C)C#N)c5)cc4c32)c(C)n1` [Example 220.2, 2-{5-[1-(1-Ethyl-3-methyl-1H-pyrazol-4-yl)-3-methyl-2-oxo-2,3-dihydro-1H-imidazo[4,5-c]quinolin-8-yl]-pyridin-3-yl}-2-methyl-propionitrile] gave an IC50 of 32 nM. Compound `CCNC(=O)c1cc(-c2ccc3ncc4c(c3c2)n(-c2cn(C(C)C)nc2C)c(=O)n4C)cnc1N` [Example 227, 2-Amino-N-ethyl-5-[1-(1-isopropyl-3-methyl-1H-pyrazol-4-yl)-3-methyl-2-oxo-2,3-dihydro-1H-imidazo[4,5-c]quinolin-8-yl]-nicotinamide] has an IC50 of 161 nM. In the case of `COc1ncc(-c2ccc3ncc4c(c3c2)n(-c2cc(C)nn2C)c(=O)n4C)c(OC)n1` [Example 234.4, 8-(2,4-Dimethoxy-pyrimidin-5-yl)-1-(2,5-dimethyl-2H-pyrazol-3-yl)-3-methyl-1,3-dihydro-imidazo[4,5-c]quinolin-2-one], the IC50 is reported as 187 nM. Work on `CNc1ccc(-c2ccc3ncc4c(c3c2)n(-c2cn(C(C)C)nc2C)c(=S)n4C)cn1` [Example 241, 1-(1-isopropyl-3-methyl-1H-pyrazol-4-yl)-3-methyl-8-(6-(methylamino)pyridin-3-yl)-1H-imidazo[4,5-c]quinoline-2(3H)-thione] yielded an IC50 of 79 nM.
